Test system: phosphorylation of IRAK4 kinase target protein NFkB
Assay: AlphaLISA SureFire Ultra p-NFκB (Ser536) assay after LPS
Assay type: cell-based, human
Conditions: doses 16 nM, 80 nM, 400 nM and 2000 nM; LPS 300 ng/ml
Description: IRAK4 targeting drugs and AAV Treatments. Dendritic cells were plated in 96 well plates with 200,000 cells per well. Each treatment was performed in triplicates. Cells were treated with zimlovisertib IRAK4 inhibitor (Synonyms: PF-06650833) Cat. No.: HY-19836 (MedChemExpress) and PROTAC IRAK4 degrader-1 Cat. No.: HY-129966 (MedChemExpress) at 16 nm, 80 nm, 400 nm and 2000 nm for 18 hrs at 37° C., 5% CO2 in an incubator. After pre-treatment of 18 hrs with the drugs, AAV vectors at 1e5 MOI were used. The cells were incubated at 37° C., 5% CO2 in an incubator for 24 hours. After 24 hours, plates were centrifuged and media supernatant was collected. The clarified media was analyzed by Meso Scale Discovery MSD (world wide web mesoscale.com/products/v-plex-proinflammatory-panel-1-human-kit-k15049d/) performed by DC3 therapeutics https://www.dc3therapeutics.com/services. The experiment outline of PBMC isolation, monocyte purification and dendritic cell differentiation is illustrated in FIG. 1. […]
AlphaLISA assay. […] Finally, SA-donor beads are added and 30 min later plates are read using EnVision-Alpha Reader (615 nm) https://resources.perkinelmer.com/lab-solutions/resources/docs/MAN_AlphaLISA_IRAK4_AL3117.pdf?_gl=1*7jzf5d*_ga*MzQ4MTQ1NzA3LjE2NDY2NzY5MjI.*_ga_W34ZJ1Z1Q1*MTY3NzE5MjAyOS4zLjEuMTY3NzE5MjA2Mi4yNy4wLjA.&_ga=2.178521252.1409175695.1677192029-348145707.1646676922. […]

CC[C@@H]1[C@H](F)C(=O)N[C@@H]1COc1nccc2cc(C(N)=O)c(OC)cc12 [zimlovisertib, 1-[[(2S,3S,4S)-3-Ethyl-4-fluoro-5-oxo-2-pyrrolidinyl]methoxy]-7-methoxy-6-isoquinolinecarboxamide]
Phosphorylation of NFkB induced by LPS: blocks phosphorylation of NFkB at 400 nM and 2000 nM

From US20230405151A1, “USE OF IRAK4 MODULATORS FOR GENE THERAPY” (Genzyme Corporation, priority 2022, published 2023)
